Like-named read-outs stand apart in the source and are kept apart here.
Assay: Solubility in propylene glycol methyl ether acetate
Format: physicochemical
Excerpt: 1.0 g of sodium 2-(1′-adamantane)carbonyloxy-1,1-difluoroethanesulfonate synthesized in Synthesis Example 8 was weighed and added to 100 g of propylene glycol methyl ether acetate, followed by stirring.
1.0 g of sodium 2-(3′-hydroxy-1′-adamantane)carbonyloxy-1,1-difluoroethanesulfonate synthesized in Synthesis Example 11 was weighed and added to 100 g of propylene glycol methyl ether acetate, followed by stirring.

Row | SMILES | Solubility | Solubility (1.0 g added to 100 g of propylene glycol methyl ether acetate, stirring)
1 | O=C(OCC(F)(F)S(=O)(=O)O)C12CC3CC(CC(C3)C1)C2 [Synthesis Example 8, triphenylsulfonium 2-(1′-adamantane)carbonyloxy-1,1-difluoroethanesulfonate] | completely dissolved | –
2 | O=C(OCC(F)(F)S(=O)(=O)O)C12CC3CC(CC(O)(C3)C1)C2 [Synthesis Example 11, triphenylsulfonium 2-(3′-hydroxy-1′-adamantane)carbonyloxy-1,1-difluoroethanesulfonate] | – | completely dissolved

— patent US20130130175A1, “Compound for Photoacid Generator, Resist Composition Using the Same, and Pattern-Forming Method” (CENTRAL GLASS COMPANY, LIMITED, priority 2007, published 2013)
